What was measured:
[1] = Drug interaction studies: change in pharmacokinetics of co-administered drug in the presence of elagolix; format: in vivo, human
Protocol: Drug interaction studies were performed with elagolix and other drugs likely to be co-administered and with drugs commonly used as probes for pharmacokinetic interactions. Tables 8 and 9 summarize the pharmacokinetic effects when elagolix was co-administered with these drugs.

[2] = Drug-drug interaction study: effect of multiple doses of elagolix sodium on pharmacokinetics of bupropion (CYP2B6 substrate) and OH-bupropion
Protocol: Subjects: Twenty four (24) adult premenopausal women in generally good health participated in this study.
Elagolix 300 mg BID (as 300 mg immediate release tablets) was administered in the morning and evening on days 1 through 14 in period 2. […] No food was consumed for 2 hours prior to the evening doses of elagolix continuing through 2 hours after. The doses of elagolix were separated by approximately 12 hours.
Individual PK parameters (peak concentration [Cmax] and area under the concentration-time curve [AUC]) were estimated using noncompartmental methods.
Central value ratios (90% confidence intervals) for Cmax, AUC, and metabolite to parent ratios (MPRs) (day 11, period 2 vs. day 1, period 1) were calculated to assess the DDIs. Safety was evaluated through assessment of adverse events, vital signs, electrocardiogram, and clinical laboratory tests.
Adverse events (AEs) were monitored throughout the DDI study. Additional safety evaluations included monitoring of physical examinations, vital signs, electrocardiogram variables, and clinical laboratory values were assessed

[3] = Drug-drug interaction study: effect of multiple doses of elagolix sodium on pharmacokinetics of omeprazole (CYP2C19 substrate) and its metabolites; conditions: for AUCinf / AUCt / Cmax: geometric mean; for t1/2: harmonic mean; for RAUCinf = metabolite-to-omeprazole AUCinf ratio / RAUCt = metabolite-to-omeprazole AUCt ratio / Tmax: median
Protocol: Subjects: Twenty adult premenopausal female subjects were enrolled in the study.
Beginning on Day 3, subjects received elagolix 300 mg BID under fasting conditions every day until Day 10. […] Doses of elagolix were separated by approximately 12 hours.
Testing was performed for CYP2C19 variants including the *2 (r54244285), *3 (r54986893), *4 (r528399504), *8 (r541291556), *10 (r56413438) and *12 (r555640102) alleles.
Safety was evaluated during confinement and at each study visit through adverse event monitoring, vital signs measurements, physical examinations, and routine laboratory tests.

[4] = ethinyl estradiol 35 mcg and triphasic norgestimate 0.18/0.215/0.25 mg once daily, elagolix 150 mg once daily, N 21
[5] = Study Day 11, omeprazole 40 mg + elagolix 300 mg BID
[6] = Study Day 11: elagolix 300 mg BID + omeprazole 40 mg
[7] = norethindrone 0.35 mg once daily x 112 days, elagolix 150 mg once daily x 56 days, N 32

## C#C[C@]1(O)CC[C@H]2[C@@H]3CCC4=CC(=NO)CC[C@@H]4[C@H]3CC[C@@]21CC (mixture of isomers) [Norelgestromin]
[1]; [4]
  Ratio (90% CI) AUC, co-administration with elagolix vs medication alone: 0.85
  Ratio (90% CI) Cmax, co-administration with elagolix vs medication alone: 0.87

## CC(NC(C)(C)C)C(=O)c1cccc(Cl)c1.Cl (racemic) [bupropion, (±)-1-(3-chlorophenyl)-2-[(1,1-dimethylethyl)amino]-1-propanone hydrochloride, reference compound]
[1]; elagolix 300 mg twice daily
  changes in exposures when co-administered with elagolix, in words: No clinically significant changes
[2]; co-administration with elagolix
  Cmax upon co-administration with elagolix, in words: increased
[2]; elagolix 300 mg BID
  increase in Cmax upon co-administration with elagolix: 25%
[2]; female, human, in vivo, 150 mg
  AUC(0-inf): 1130 ng·h/mL
  AUC(0-t): 1090 ng·h/mL
  Cmax: 89.5 ng/mL
  Tmax: 4 h

## COc1ccc2nc([S+]([O-])Cc3ncc(CO)c(OC)c3C)[nH]c2c1 (centres unmarked) [5-hydroxyomeprazole]
[3]; Day 11 vs. Day 1
  M:P AUCinf Ratio, Relative Bioavailability Point Estimate: 0.432
  M:P AUCt Ratio, Relative Bioavailability Point Estimate: 0.412
[3]; Study Day 1, omeprazole 40 mg
  AUCinf: 883 ng·h/mL
  AUCt: 857 ng·h/mL
  Cmax: 195 ng/mL
  t1/2: 1.88 h
  RAUCinf = metabolite-to-omeprazole AUCinf ratio: 0.61
  RAUCt = metabolite-to-omeprazole AUCt ratio: 0.65
  Tmax: 2.0 h
[3]; Study Day 1: omeprazole 40 mg
  M:P AUCinf Ratio, Central Value Reference: 0.458
  M:P AUCt Ratio, Central Value Reference: 0.471
[3]; [5]
  AUCinf: 664 ng·h/mL
  AUCt: 643 ng·h/mL
  Cmax: 134 ng/mL
  t1/2: 1.97 h
  RAUCinf = metabolite-to-omeprazole AUCinf ratio: 0.20
  RAUCt = metabolite-to-omeprazole AUCt ratio: 0.20
  Tmax: 3.0 h
[3]; [6]
  M:P AUCinf Ratio, Central Value Test: 0.198
  M:P AUCt Ratio, Central Value Test: 0.194
[3]; all CYP2C19 genotype subgroups, elagolix co-administration
  decrease in AUCinf in all genotype subgroups: 20-30%
[3]; elagolix 300 mg BID dosing
  decrease in AUCinf: ~25%
  decrease in Cmax: approximately 30%
  decrease in M:P AUCinf ratio: 60%

## C#C[C@]1(O)CC[C@H]2[C@@H]3CCC4=CC(=O)CC[C@@H]4[C@H]3CC[C@@]21C [Norethindrone]
[1]; [7]
  Ratio (90% CI) AUC, co-administration with elagolix vs medication alone: 0.88
  Ratio (90% CI) Cmax, co-administration with elagolix vs medication alone: 0.95
